Common to all, as to assay type: functional
Test [1] can be described thus: (§1) Inhibition of protein synthesis in mouse Krebs cells overexpressing (CAG)33/FF/HCV/Ren mRNA reporter transcript assessed as firefly luciferase production at 100 uM relative to control.
Test [2] in a line: (§2) Inhibition of protein synthesis in mouse Krebs cells overexpressing (CAG)33/FF/HCV/Ren mRNA reporter transcript assessed as renilla luciferase production at 100 uM relative to control.
For test [3], the system named is Krebs. The description is as §1.
Test [4] has as its system Krebs. Described as §2.
A short description of test [5]: Inhibition of translation in mouse Krebs cells overexpressing (CAG)33/FF/HCV/Ren mRNA reporter transcript assessed as luciferase production at 100 uM relative to control.
A further test deals with Escherichia coli. The test is described as follows: Inhibition of bacterial protein synthesis in Escherichia coli S30 overexpressing pBEST/luc and [35S]met assessed as [35S]met incorporation.
The species named for a further test is Oryctolagus cuniculus. The test is described as follows: Inhibition of translation initiation in rabbit reticulocyte lysates with [32P]CAT mRNA assessed as 80S initiation complex formation at 50 uM by ribosome binding assay in presence of cycloheximide.

Experimental findings from ChEMBL document CHEMBL1146505, “Flavonoid glycosides from Adina racemosa and their inhibitory activities on eukaryotic protein synthesis” (2004) are described below.

Calls of active or inactive are those of the source. The rule behind the calls is not given here.

Consider `C[C@@H]1O[C@@H](OC[C@H]2O[C@@H](Oc3c(-c4ccc(O)c(O)c4)oc4cc(O)cc(O)c4c3=O)[C@H](O)[C@@H](O)[C@H]2OC(=O)/C=C/c2ccc(O)cc2)[C@H](O)[C@H](O)[C@H]1O`, for which the “fold change (FC)” value in test [1] and in test [2] was 2 in each case.

As for `C[C@@H]1O[C@@H](OC[C@H]2O[C@@H](Oc3c(-c4ccc(O)c(O)c4)oc4cc(O)cc(O)c4c3=O)[C@H](O)[C@@H](OC(=O)/C=C/c3ccc(O)cc3)[C@H]2O)[C@H](O)[C@H](O)[C@H]1O`, the “fold change (FC)” value in test [1] and in test [2] was 2 each time.

As to `C[C@@H]1O[C@@H](OC[C@H]2O[C@@H](Oc3c(-c4ccc(O)cc4)oc4cc(O)cc(O)c4c3=O)[C@H](O[C@@H]3O[C@@H](C)[C@H](OC(=O)/C=C/c4ccc(O)cc4)[C@@H](O)[C@H]3O)[C@@H](O)[C@H]2OC(=O)/C=C/c2ccc(O)cc2)[C@H](O)[C@H](O)[C@H]1O`, the outcome in the test with Krebs [3] and in the test with Krebs [4] was Active. Moreover, the “fold change (FC)” value in test [5] is reported as 5.

Regarding `C[C@@H]1O[C@@H](OC[C@H]2O[C@@H](Oc3c(-c4ccc(O)c(O)c4)oc4cc(O)cc(O)c4c3=O)[C@H](O[C@@H]3O[C@@H](C)[C@H](OC(=O)/C=C/c4ccc(O)cc4)[C@@H](O)[C@H]3O)[C@@H](O)[C@H]2OC(=O)/C=C/c2ccc(O)cc2)[C@H](O)[C@H](O)[C@H]1O`, the result in the test with Krebs [3] and in the test on Krebs [4] was Active. In addition, in test [5], the “fold change (FC)” value is 5.

Consider `C[C@@H]1O[C@@H](OC[C@H]2O[C@@H](Oc3c(-c4ccc(O)c(O)c4)oc4cc(O)cc(O)c4c3=O)[C@H](O[C@@H]3O[C@@H](C)[C@H](OC(=O)/C=C/c4ccc(O)c(O)c4)[C@@H](O)[C@H]3O)[C@@H](OC(=O)/C=C/c3ccc(O)cc3)[C@H]2O)[C@H](O)[C@H](O)[C@H]1O`, for which the outcome in the test on Escherichia coli and in the test filed under Oryctolagus cuniculus was inactive. Further, the outcome in the test on Krebs [3] and in the test on Krebs [4] was Active. Further, in test [5], the “fold change (FC)” value is 10.

`C[C@@H]1O[C@@H](OC[C@H]2O[C@@H](Oc3c(-c4ccc(O)c(O)c4)oc4cc(O)cc(O)c4c3=O)[C@H](O[C@@H]3O[C@@H](C)[C@H](OC(=O)/C=C/c4ccc(O)cc4)[C@@H](O)[C@H]3O)[C@@H](OC(=O)/C=C/c3ccc(O)cc3)[C@H]2O)[C@H](O)[C@H](O)[C@H]1O`: the result in the test with Krebs [3] and in the test on Krebs [4] was Active. Further, in test [5], the “fold change (FC)” value is reported as 10.

For `C[C@@H]1O[C@@H](OC[C@H]2O[C@@H](Oc3c(-c4ccc(O)cc4)oc4cc(O)cc(O)c4c3=O)[C@H](O)[C@@H](O)[C@H]2OC(=O)/C=C/c2ccccc2)[C@H](O)[C@H](O)[C@H]1O`, the “fold change (FC)” value in test [1] and in test [2] was 2 each time.
